Data taken from PMC7730513, “A Topical Formulation of Melatoninergic Compounds Exerts Strong Hypotensive and Neuroprotective Effects in a Rat Model of Hypertensive Glaucoma” (International Journal of Molecular Sciences, 2020).
Values joined by “and” are separate entries in the source; they are usually repeats but may differ in a detail not shown here. Identical values can stand only once. “Also recorded” adds a separate entry of the source. Like-named read-outs stand apart in the source and are kept apart here.

Legend:
MT1 melatonin receptor = conditions: read-out: Affinity of MT1 melatonin receptor; cited from earlier work
MT2 melatonin receptor = conditions: read-out: Affinity of MT2 melatonin receptor; cited from earlier work
[1] = Pharmacokinetics study: eye tissue distribution of melatonin/agomelatine eye drops by HPLC/MS/MS in healthy rats; conditions: for concentration at 2 h: rat, topical, 40 µg
Protocol: (§4) Two hours after the last treatment, animals were euthanized with an overdose of pentobarbital and the eye globes removed. One eye of each rat was taken whole, while the fellow eyes were dissected, and retinas and vitreous humors were separately taken. Whole eyes were cut in small pieces and separately homogenized with an Ultra-turrax homogenizer for 3 min on ice at 4 °C in 0.25 mL of methanol, then subjected to 1 min of ultrasonication in a cold-water bath. The five retinas were pooled together and extracted as before in 0.1 mL of methanol. Each vitreous body was diluted with 0.05 mL of methanol and sonicated. All samples were finally centrifuged 10 min at 10,000× g rpm and the supernatants were saved frozen for further analysis. […] The operational MS parameters of the instrument were: gas temperature, 350 °C; gas flow, 5 L/min; nebulizer, 20 psi; capillary, 3500 V; collision energy, 15 V; dwell-time, 200 msec; fragmentor, 135 V.

[2] = system: MCE rat model of hypertensive glaucoma; assay: Photopic full-field ERG, photopic negative response (PhNR); assay type: in vivo; conditions: two weeks after MCE; versus respective vehicle
Protocol: (§1) The model was originally developed in rabbits and then applied to rodents. It is based on the injection of 2% MCE in sterile saline in the anterior chamber of the eye. The MCE used in the present study (M0512; Sigma Aldrich, St. Louis, MO, USA) is pure and has a molecular weight of about 88,000 and, when dissolved in aqueous solution at 2% gives a solution with a viscosity ranging from 3500 to 5600 cps. Rats, anesthetized with an intraperitoneal injection of pentobarbital (30 mg/kg), were injected into the anterior chamber with 15 µL of MCE in both eyes using a 18G needle in agreement with published protocols. […] The eyes of each rat were evaluated for unintended adverse effects of intraocular injection -e.g., cataract, corneal opacity or edema that could impact electrophysiological parameters and/or tonometer accuracy.
(§2) Eye drops (10 µL) were administered to both eyes two times a day over two weeks after MCE injection. Eye drops were instilled at 10 a.m. and at 6 p.m.

[3] = system: MCE rat model of hypertensive glaucoma; assay: Pattern ERG (PERG); assay type: in vivo; conditions: two weeks after MCE
Protocol: as §1, §2
PERG responses, mainly generated by RGC activity, can be useful for assessing RGC function in conditions such as glaucoma and ischemic optic neuropathy. PERG responses were evoked using an alternating pattern of black and white horizontal bars delivered on a stimulus display unit from a commercially available PERG system (SB700 Advanced, Nikon-Europe, Amsterdam, The Netherlands). Stimuli consisted in 0.05 cycles/deg black and white bars reversing at 1 Hz presented at 98% contrast. The pattern stimuli were administered through a light emitting diode display with a mean luminance of 50 cd/m^2 aligned at about 20 cm from the corneal surface. A total of 200 signals were averaged. Each animal was placed at the same fixed position in front of the monitor to prevent recording variability due to animal placement. PERG recordings were sequentially conducted in both eyes. The PERG response was evaluated by measuring the amplitude of the N35-P50 wave (from the trough of the negative peak N35, a small deflection near 35 ms after the stimulus, to the peak of the positive peak P50, a deflection near 50 ms after the stimulus) and the P50-N95 wave (from the peak of the positive peak P50 to the trough of the negative peak N95, a deflection near 95 ms after the stimulus). The implicit time was determined by measuring the time from the onset of the stimulus to the P50 and N95 peaks.

Iba1 = assay: Western blot of retinal homogenates, Iba1; assay type: in vivo, rat; conditions: retina, MCE model, versus respective vehicle
Protocol: as §1, with “accuracy. […]” for “accuracy.”
(§3) After animal euthanization with an overdose of pentobarbital, retinas were isolated and stored at −80 °C. […] Protein concentration was measured using the Micro BCA Protein Assay (Thermo Fisher Scientific, Waltham, MA, USA). […] Blots were blocked for 1 h with 5% skim milk and incubated overnight at 4 °C with the primary antibodies listed in Supplementary Table S1 that are routinely used to detect the inflammatory and the apoptotic markers as determined in the present study. β-actin was used as loading control. […]

GFAP = assay: Western blot of retinal homogenates, GFAP; assay type: in vivo, rat; conditions: retina, MCE model, versus respective vehicle
Protocol: as §1, with “accuracy. […]” for “accuracy.”
as §3

TNF-α = assay: Western blot of retinal homogenates, TNF-α; assay type: in vivo, rat; conditions: retina, MCE model, versus respective vehicle
Protocol: as §1, with “accuracy. […]” for “accuracy.”
as §3

IL-1β = assay: Western blot of retinal homogenates, IL-1β; assay type: in vivo, rat; conditions: retina, MCE model, versus respective vehicle
Protocol: as §1, with “accuracy. […]” for “accuracy.”
as §3

IL-6 = assay: Western blot of retinal homogenates, IL-6; assay type: in vivo, rat; conditions: retina, MCE model, versus respective vehicle
Protocol: as §1, with “accuracy. […]” for “accuracy.”
as §3

IL-4 = assay: Western blot of retinal homogenates, IL-4; assay type: in vivo, rat; conditions: retina, MCE model, versus respective vehicle
Protocol: as §1, with “accuracy. […]” for “accuracy.”
as §3

IL-10 = assay: Western blot of retinal homogenates, IL-10; assay type: in vivo, rat; conditions: retina, MCE model, versus respective vehicle
Protocol: as §1, with “accuracy. […]” for “accuracy.”
as §3

Bax/Bcl-2 = assay: Western blot of retinal homogenates, Bax/Bcl-2 ratio; assay type: in vivo, rat; conditions: retina, MCE model, versus respective vehicle
Protocol: as §1, with “accuracy. […]” for “accuracy.”
as §3

active caspase 3 = assay: Western blot of retinal homogenates, active caspase 3; assay type: in vivo, rat; conditions: retina, MCE model, versus respective vehicle
Protocol: as §1, with “accuracy. […]” for “accuracy.”
as §3

Brn3a-positive RGCs = assay: RGC density by Brn3a immunohistochemistry in retinal flat mounts; assay type: in vivo, rat; conditions: for RGC loss spared: MCE reduced RGC density by about 29%; for RGC density (% of control), Central: central retina; for RGC density (% of control), Central / RGC density (% of control), Middle / RGC density (% of control), Peripheral: MCE + treatment, mean ± SEM, n = 6; for RGC density (% of control), Middle: middle retina; for RGC density (% of control), Peripheral: peripheral retina
Protocol: as §1, §2
After animal euthanization with an overdose of pentobarbital, six retinas from independent rats for each experimental group were explanted. Retinas were then fixed for 90 min at 4 °C in 4% paraformaldehyde in 0.1 M phosphate buffer (PB) and stored at 4 °C in 25% sucrose in 0.1 M PB. Retinal ganglion cells were labeled incubating the retinas for 24 h at 4 °C with a mouse monoclonal antibody against Brn3a (1:100 in PB containing 5% BSA and 2% TritonX-100; sc-8429; Santa Cruz Biotechnology, Santa Cruz, CA, USA). Retina whole mounts were then washed with PB and incubated overnight at 4 °C in an AlexaFluor555-conjugated secondary antibody (1:100; A-32727; Molecular Probes, Eugene, OR, USA). Finally, retinas were washed with PB, mounted on glass slides with the photoreceptor side facing down and viewed with a fluorescence microscope (Ni-E; Nikon-Europe, Amsterdam, The Netherlands). Images of the entire retina were acquired by a DS-Fi1c camera (Nikon-Europe) and Brn3a-positive cells were counted using the NIS-Elements software (Nikon-Europe). […] In total, 12 images were taken from each retina. The density of Brn3a-positive cells (number of cells per mm^2) was compared between the different experimental groups. Quantification was performed in a masked manner.

[4] = after administration of 0.1% eye drops; cited from earlier work
[5] = brimonidine eye drops in monkeys; cited from earlier work
[6] = Sprague-Dawley, rat, in vivo, 2 h
Protocol: as §4

in vivo = conditions: rat
Protocol: as §4

[7] = system: MCE rat model of hypertensive glaucoma; assay: IOP measurement by tonometry in the MCE model; assay type: in vivo; conditions: after two weeks of eye drops twice a day; in respect to the respective vehicle (vehicle 1 saline for timolol, brimonidine; vehicle 2 nanomicellar for melatonin/agomelatine)
Protocol: as §1, §2

[8] = of 120 µg given in 3 administrations of 40 µg

Row | Amplitude of the N35-P50 and P50-N95 waves, effect versus vehicle [3] | MCE-induced increase in the implicit time of the P50 and N95 components [3] | Compound | Ki (MT2 melatonin receptor) [nM] | PhNR amplitude [2] | Reduction of Iba1 levels (Iba1) | Reduction of GFAP levels (GFAP) | Reduction of TNF-α levels (TNF-α) | Reduction of IL-1β levels (IL-1β) | Reduction of IL-6 levels (IL-6) | Increase of IL-4 levels (IL-4) | Increase of IL-10 levels (IL-10) | Reduction of the Bax/Bcl-2 ratio (Bax/Bcl-2) | Decrease of the levels of the active form of caspase 3 (active caspase 3) | RGC loss spared (Brn3a-positive RGCs) | RGC density (% of control), Central (Brn3a-positive RGCs) | RGC density (% of control), Middle (Brn3a-positive RGCs) | RGC density (% of control), Peripheral (Brn3a-positive RGCs) | other results
1 | – | – | COc1ccc2cccc(CCNC(C)=O)c2c1 [agomelatine] | 0.12 | – | – | – | – | – | – | – | – | – | – | – | – | – | – | Ki (MT1 melatonin receptor): 0.01 nM; concentration at 2 h ([1]; Sprague-Dawley, retina, Concentration in the retina (molar), converted from ng/mg): ~378 nM; concentration at 2 h ([1]; Sprague-Dawley, retina, Concentration, pool of retinas, pool of retinas of animals 1 to 5, 3 x 40 µg eye drops, 2 h after last instillation): 96 ng/g; concentration at 2 h ([1]; Sprague-Dawley, vitreous humor, Concentration, vitreous, individual animals 1-5, 3 x 40 µg eye drops, 2 h after last instillation): 71 ng/g; concentration at 2 h ([1]; Sprague-Dawley, vitreous humor, Concentration, vitreous, mean, mean of 5 animals, 3 x 40 µg eye drops, 2 h after last instillation): 80 ng/g; concentration at 2 h ([1]; Sprague-Dawley, whole eye, Concentration, whole eye, individual animals 1-5, 3 x 40 µg as 10 µL eye drops 2 h apart, sampled 2 h after last instillation): 10900 ng/g; concentration at 2 h ([1]; Sprague-Dawley, whole eye, Concentration, whole eye, mean, mean of 5 animals, 3 x 40 µg eye drops, 2 h after last instillation): 9940 ng/g; Content in the whole eye relative to melatonin ([1]; agomelatine 9.94 ng/mg vs melatonin 7.44 ng/mg): 1.33 times; Concentration, whole eye ([1]; individual animals 1-5, 3 x 40 µg as 10 µL eye drops 2 h apart, sampled 2 h after last instillation): 10.64 ng/mg and 11.35 ng/mg and 9.16 ng/mg and 7.67 ng/mg; Concentration, vitreous ([1]; individual animals 1-5, 3 x 40 µg eye drops, 2 h after last instillation): 0.073 ng/mg and 0.099 ng/mg and 0.077 ng/mg and 0.084 ng/mg; Concentration, vitreous, mean ([1]; mean of 5 animals, 3 x 40 µg eye drops, 2 h after last instillation): 0.081 ng/mg; Amount retained in the whole eye [1, 8]: 1.59 µg; Fraction of the 120 µg given retained in the whole eye [1, 8]: ~1.3%; concentration at 2 h ([1]; retina, Concentration in the retina (molar), converted from ng/mg): 378 nM; concentration at 2 h ([1]; vitreous humor, Concentration in the vitreous humor (molar), converted from ng/mg): 332 nM; Retina concentration relative to melatonin ([1]; retina): twenty-two times higher
2 | partly prevented the reduction | prevented | Brc1c(NC2=NCCN2)ccc2nccnc12 [brimonidine] | – | almost restoring the PhNR amplitude to control levels | not affecting | about 1.6 fold | did not affect | did not affect | did not affect | did not affect | did not affect | ~9.7 fold | ~2.2 fold | spared almost completely; also recorded: almost completely prevented | 88 ± 3 % of control | 91 ± 6 % of control | 91 ± 3 % of control | Amplitude of the P50-N95 wave, lower than in controls ([3]; MCE alone about 55% reduced): ~25%; Amplitude of the N35-P50 wave, lower than in controls ([3]; MCE alone about 60% reduced): about 24%; Vitreous concentration [4]: 2 nM; Concentration values after eye drops [5]: around 80 nM
3 | – | – | COc1ccc2[nH]cc(CCNC(C)=O)c2c1 [melatonin] | 0.38 | – | – | – | – | – | – | – | – | – | – | – | – | – | – | Fraction of the 120 µg given retained in the whole eye [6]: roughly 1%; concentration at 2 h (in vivo; Sprague-Dawley, Concentration in the retina (molar)): ~17 nM; concentration at 2 h (in vivo; Concentration in the retina (molar)): 17 nM; concentration at 2 h (in vivo; Concentration in the vitreous humor (molar)): 43 nM
4 | did not differ | did not affect | CC(C)(C)NC[C@H](O)COc1nsnc1N1CCOCC1 [timolol] | – | did not differ | did not affect | did not affect | did not affect | did not affect | did not affect | did not affect | did not affect | about 1.6 fold | about 1.3 fold | about 11% | 78 ± 4 *^,§ % of control | 83 ± 3 *^,§ % of control | 81 ± 4 *^,§ % of control | Reduction of the MCE-induced increase in IOP [7]: about 32%
